Data as given in US9884832B2 (priority 2011, dated 2018).
Like-named read-outs stand apart in the source and are kept apart here.

Target: AM2 S31N (serine→asparagine mutation at residue 31 in the M2 protein) (Influenza A virus, UniProt P0DOF5, S31N)
Assay type: cell-based, influenza virus A/Udorn/72

Compound: Clc1ccc(CNC23CC4CC(CC(C4)C2)C3)cc1 [Example 1b, N-(4-Chlorobenzyl)adamantan-1-amine]
- S31N OOcyte Inhibition at 100 uM (%) (pH 5.5): A (key: (A)=31-95%; (B)=0-30%)

Compound: Oc1cc(I)ccc1CNC12CC3CC(CC(C3)C1)C2 [Example 2b]
- S31N OOcyte Inhibition at 100 uM (%) (pH 5.5): A (key: (A)=31-95%; (B)=0-30%)

Compound: CC(NC12CC3CC(CC(C3)C1)C2)c1ccc(C(C)(C)C)cc1 (stereo not shown) [Example 3b, N-(1-(4-(tert-butyl)phenyl)ethyl)adamantan-1-amine]
- S31N OOcyte Inhibition at 100 uM (%) (pH 5.5): B (key: (A)=31-95%; (B)=0-30%)

Compound: CC(NC12CC3CC(CC(C3)C1)C2)c1ccc(-c2ccccc2)cc1 (stereo not shown) [Example 4b, N-(1-([1,1′-biphenyl]-4-yl)ethyl)adamantan-1-amine]
- S31N OOcyte Inhibition at 100 uM (%) (pH 5.5): B (key: (A)=31-95%; (B)=0-30%)

Compound: Cc1csc(-c2ccc(CNC34CC5CC(CC(C5)C3)C4)cc2)c1 [Example 5b, N-(4-(4-Methylthiophen-2-yl)benzyl)adamantan-1-amine]
- S31N OOcyte Inhibition at 100 uM (%) (pH 5.5): A (key: (A)=31-95%; (B)=0-30%)

Compound: Oc1cc(F)ccc1CNC12CC3CC(CC(C3)C1)C2 [Example 6b]
- S31N OOcyte Inhibition at 100 uM (%) (pH 5.5): A (key: (A)=31-95%; (B)=0-30%)

Compound: Oc1cc(-c2ccco2)ccc1CNC12CC3CC(CC(C3)C1)C2 [Example 7b, 2-((-Adamantan-1-ylamino)methyl)-5-(furan-2-yl)phenol]
- S31N OOcyte Inhibition at 100 uM (%) (pH 5.5): A (key: (A)=31-95%; (B)=0-30%)

Compound: Cc1ccc(CNC23CC4CC(CC(C4)C2)C3)cc1 [Example 8a, N-(4-Methylbenzyl)adamantan-1-amine]
- S31N OOcyte Inhibition at 100 uM (%): B (key: (A)=31-95%; (B)=0-30%)

Compound: Oc1cc(-c2ccsc2)ccc1CNC12CC3CC(CC(C3)C1)C2 [Example 8b]
- S31N OOcyte Inhibition at 100 uM (%) (pH 5.5): A (key: (A)=31-95%; (B)=0-30%)

Compound: c1cc(C2CC2)ccc1CNC12CC3CC(CC(C3)C1)C2 [Example 9a, N-(4-Cyclopropylbenzyl)adamantan-1-amine]
- S31N OOcyte Inhibition at 100 uM (%): A (key: (A)=31-95%; (B)=0-30%)

Compound: Oc1cc(Cl)ccc1CNC12CC3CC(CC(C3)C1)C2 [Example 9b, 2-((-Adamantan-1-ylamino)methyl)-5-chlorophenol]
- S31N OOcyte Inhibition at 100 uM (%) (pH 5.5): A (key: (A)=31-95%; (B)=0-30%)

Compound: Clc1nc(CNC23CC4CC(CC(C4)C2)C3)ns1 [Example 10b, N-((5-chloro-1,2,4-thiadiazol-3-yl)methyl)adamantan-1-amine]
- S31N OOcyte Inhibition at 100 uM (%) (pH 5.5): A (key: (A)=31-95%; (B)=0-30%)

Compound: c1csc(-c2nc(CNC34CC5CC(CC(C5)C3)C4)cs2)c1 [Example 11b, N-((2-(thiophen-2-yl)thiazol-4-yl)methyl)adamantan-1-amine]
- S31N OOcyte Inhibition at 100 uM (%) (pH 5.5): A (key: (A)=31-95%; (B)=0-30%)

Compound: Cc1nc(CNC23CC4CC(CC(C4)C2)C3)cs1 [Example 12b, N-((2-methylthiazol-4-yl)methyl)adamantan-1-amine]
- S31N OOcyte Inhibition at 100 uM (%) (pH 5.5): A (key: (A)=31-95%; (B)=0-30%)

Compound: Clc1ncc(CNC23CC4CC(CC(C4)C2)C3)s1 [Example 13b, N-((2-chlorothiazol-5-yl)methyl)adamantan-1-amine]
- S31N OOcyte Inhibition at 100 uM (%) (pH 5.5): B (key: (A)=31-95%; (B)=0-30%)

Compound: FC(F)(F)c1nnc(CNC23CC4CC(CC(C4)C2)C3)o1 [Example 14b, N-((5-(trifluoromethyl)-1,3,4-oxadiazol-2-yl)methyl)adamantan-1-amine]
- S31N OOcyte Inhibition at 100 uM (%) (pH 5.5): A (key: (A)=31-95%; (B)=0-30%)

Compound: COc1ccccc1-c1nc(CNC23CC4CC(CC(C4)C2)C3)no1 [Example 15b, N-((5-(2-methoxyphenyl)-1,2,4-oxadiazol-3-yl)methyl)adamantan-1-amine]
- S31N OOcyte Inhibition at 100 uM (%) (pH 5.5): A (key: (A)=31-95%; (B)=0-30%)

Compound: Cc1ncc(CNC23CC4CC(CC(C4)C2)C3)s1 [Example 16b, N-((2-methylthiazol-5-yl)methyl)adamantan-1-amine]
- S31N OOcyte Inhibition at 100 uM (%) (pH 5.5): B (key: (A)=31-95%; (B)=0-30%)

Compound: Cc1nnc(CNC23CC4CC(CC(C4)C2)C3)o1 [Example 17b, N-((5-methyl-1,3,4-oxadiazol-2-yl)methyl)adamantan-1-amine]
- S31N OOcyte Inhibition at 100 uM (%) (pH 5.5): A (key: (A)=31-95%; (B)=0-30%)

Compound: Cn1cc(CNC23CC4CC(CC(C4)C2)C3)nn1 [Example 18b, N-((1-methyl-1H-1,2,3-triazol-4-yl)methyl)adamantan-1-amine]
- S31N OOcyte Inhibition at 100 uM (%) (pH 5.5): B (key: (A)=31-95%; (B)=0-30%)

Compound: Nc1ncc(CNC23CC4CC(CC(C4)C2)C3)s1 [Example 19b]
- S31N OOcyte Inhibition at 100 uM (%) (pH 5.5): B (key: (A)=31-95%; (B)=0-30%)

Compound: CC(C)(C)c1ncc(CNC23CC4CC(CC(C4)C2)C3)s1 [Example 20b, N-((2-(tert-butyl)thiazol-5-yl)methyl)adamantan-1-amine]
- S31N OOcyte Inhibition at 100 uM (%) (pH 5.5): A (key: (A)=31-95%; (B)=0-30%)

Compound: C1COC(c2nc(CNC34CC5CC(CC(C5)C3)C4)no2)C1 (stereo not shown) [Example 21b, N-((5-(tetrahydrofuran-2-yl)-1,2,4-oxadiazol-3-yl)methyl)adamantan-1-amine]
- S31N OOcyte Inhibition at 100 uM (%) (pH 5.5): A (key: (A)=31-95%; (B)=0-30%)

Compound: CC(C)Cc1nc(CNC23CC4CC(CC(C4)C2)C3)no1 [Example 22b, N-((5-isobutyl-1,2,4-oxadiazol-3-yl)methyl)adamantan-1-amine]
- S31N OOcyte Inhibition at 100 uM (%) (pH 5.5): A (key: (A)=31-95%; (B)=0-30%)

Compound: COCc1nc(CNC23CC4CC(CC(C4)C2)C3)no1 [Example 23b, N-((5-(methoxymethyl)-1,2,4-oxadiazol-3-yl)methyl)adamantan-1-amine]
- S31N OOcyte Inhibition at 100 uM (%) (pH 5.5): A (key: (A)=31-95%; (B)=0-30%)

Compound: C1CCC(c2nc(CNC34CC5CC(CC(C5)C3)C4)no2)CC1 [Example 24b]
- S31N OOcyte Inhibition at 100 uM (%) (pH 5.5): A (key: (A)=31-95%; (B)=0-30%)

Compound: Cc1noc(C)c1-c1nc(CNC23CC4CC(CC(C4)C2)C3)no1 [Example 25b, N-((5-(3,5-dimethylisoxazol-4-yl)-1,2,4-oxadiazol-3-yl)methyl)adamantan-1-amine]
- S31N OOcyte Inhibition at 100 uM (%) (pH 5.5): B (key: (A)=31-95%; (B)=0-30%)

Compound: CCCc1cc(CNC23CC4CC(CC(C4)C2)C3)no1 [Example 26b, N-((5-propylisoxazol-3-yl)methyl)adamantan-1-amine]
- S31N OOcyte Inhibition at 100 uM (%) (pH 5.5): A (key: (A)=31-95%; (B)=0-30%)

Compound: CC(C)c1cc(CNC23CC4CC(CC(C4)C2)C3)no1 [Example 27b, N-((5-isopropylisoxazol-3-yl)methyl)adamantan-1-amine]
- S31N OOcyte Inhibition at 100 uM (%) (pH 5.5): A (key: (A)=31-95%; (B)=0-30%)

Compound: COc1ccc(Cc2nc(CNC34CC5CC(CC(C5)C3)C4)no2)cc1OC [Example 28b, N-((5-(3,4-dimethoxybenzyl)-1,2,4-oxadiazol-3-yl)methyl)adamantan-1-amine]
- S31N OOcyte Inhibition at 100 uM (%) (pH 5.5): A (key: (A)=31-95%; (B)=0-30%)

Compound: CCCc1nc(CNC23CC4CC(CC(C4)C2)C3)no1 [Example 29b, N-((5-propyl-1,2,4-oxadiazol-3-yl)methyl)adamantan-1-amine]
- S31N OOcyte Inhibition at 100 uM (%) (pH 5.5): A (key: (A)=31-95%; (B)=0-30%)

Compound: COc1ccccc1-c1noc(CNC23CC4CC(CC(C4)C2)C3)n1 [Example 30b, N-((3-(2-methoxyphenyl)-1,2,4-oxadiazol-5-yl)methyl)adamantan-1-amine]
- S31N OOcyte Inhibition at 100 uM (%) (pH 5.5): A (key: (A)=31-95%; (B)=0-30%)

Compound: Clc1ccccc1-c1nc(CNC23CC4CC(CC(C4)C2)C3)no1 [Example 31b, N-((5-(2-chlorophenyl)-1,2,4-oxadiazol-3-yl)methyl)adamantan-1-amine]
- S31N OOcyte Inhibition at 100 uM (%) (pH 5.5): A (key: (A)=31-95%; (B)=0-30%)

Compound: c1c(CNC23CC4CC(CC(C4)C2)C3)noc1C1CCCCC1 [Example 32b, N-((5-cyclohexylisoxazol-3-yl)methyl)adamantan-1-amine]
- S31N OOcyte Inhibition at 100 uM (%) (pH 5.5): A (key: (A)=31-95%; (B)=0-30%)
